Experimental findings from patent publication US9908895B2, “Tricyclic fused thiophene derivatives as JAK inhibitors” (Incyte Corporation, priority 2012, dated 2018) are described below.

For this assay, the system named is human JAK1. Briefly: In vitro JAK kinase assay (HTRF), JAK1. The format is biochemical. The following applies: ratio of JAK2 IC50 to JAK1 IC50 at 1 mM ATP. The procedure:
Compounds herein were tested for inhibitory activity of JAK targets according to the following in vitro assay described in Park et al., Analytical Biochemistry 1999, 269, 94-104. The catalytic domains of human JAK1 (a.a. 837-1142), JAK2 (a.a. 828-1132) and JAK3 (a.a. 781-1124) were expressed using baculovirus in insect cells and purified. The catalytic activity of JAK1, JAK2 or JAK3 was assayed by measuring the phosphorylation of a biotinylated peptide. The phosphorylated peptide was detected by homogenous time resolved fluorescence (HTRF). IC50s of compounds were measured for each kinase in the 40 μL reactions that contain the enzyme, ATP and 500 nM peptide in 50 mM Tris (pH 7.8) buffer with 100 mM NaCl, 5 mM DTT, and 0.1 mg/mL (0.01%) BSA. For the 1 mM IC50 measurements, ATP concentration in the reactions was 1 mM. Reactions were carried out at room temperature for 1 hour and then stopped with 20 μL 45 mM EDTA, 300 nM SA-APC, 6 nM Eu-Py20 in assay buffer (Perkin Elmer, Boston, Mass.). Binding to the Europium labeled antibody took place for 40 minutes and HTRF signal was measured on a PHERA star plate reader (BMG, Cary, N.C.). The Example compounds were each tested in the Example A assay (see Table 1 for data for the compounds of the examples as tested by the assay of Example A at 1 mM ATP).
(In general: Time-resolved FRET reads energy transfer from a long-lived donor to a nearby acceptor.)

A value given as a limit tells only on which side of the number the result lay.

As for `C[C@@H](O)c1nc2cnc3ccsc3c2n1[C@H]1CCN(CCCC#N)C1` [Example 65, 4-((3S)-3-{2-[(1R)-1-Hydroxyethyl]-1H-imidazo[4,5-d]thieno[3,2-b]pyridin-1-yl}pyrrolidin-1-yl)butanenitrile], the JAK2/JAK1 is reported as more than 10.
`C[C@@H](O)c1nc2cnc3ccsc3c2n1[C@H]1CCN(CCCCC#N)C1` [Example 66, 5-((3S)-3-{2-[(1R)-1-Hydroxyethyl]-1H-imidazo[4,5-d]thieno[3,2-b]pyridin-1-yl}pyrrolidin-1-yl)pentanenitrile]: the JAK2/JAK1 is more than 10.
To `C[C@@H](O)c1nc2cnc3ccsc3c2n1[C@H]1CC[C@H](CC#N)[C@H](N)C1` [Example 67, ((1R,2R,4S)-2-Amino-4-{2-[(1R)-1-hydroxyethyl]-1H-imidazo[4,5-d]thieno[3,2-b]pyridin-1-yl}cyclohexyl)acetonitrile] belongs more than 10.
To `CC(N)c1nc2cnc3ccsc3c2n1[C@H]1CC[C@H](CC#N)OC1.O=C(O)C(F)(F)F` (stereo partly drawn) [Example 68, {(2R,5S)-5-[2-(1-Aminoethyl)-1H-imidazo[4,5-d]thieno[3,2-b]pyridin-1-yl]tetrahydro-2H-pyran-2-yl}acetonitrile trifluoroacetate] belongs more than 10; to `CC(=O)NC(C)c1nc2cnc3ccsc3c2n1[C@H]1CC[C@H](CC#N)OC1` (stereo partly drawn) [Example 69, N-(1-{1-[(3S,6R)-6-(Cyanomethyl)tetrahydro-2H-pyran-3-yl]-1H-imidazo[4,5-d]thieno[3,2-b]pyridin-2-yl}ethyl)acetamide], more than 10.
On to `CNC(C)c1nc2cnc3ccsc3c2n1[C@H]1CC[C@H](CC#N)OC1` (stereo partly drawn) [Example 70, ((2R,5S)-5-{2-[1-(Methylamino)ethyl]-1H-imidazo[4,5-d]thieno[3,2-b]pyridin-1-yl}tetrahydro-2H-pyran-2-yl)acetonitrile], for which the JAK2/JAK1 is more than 10.
To `CC(F)c1nc2cnc3ccsc3c2n1[C@H]1CC[C@H](CC#N)OC1` (stereo partly drawn) [Example 71, {(2R,5S)-5-[2-(1-Fluoroethyl)-1H-imidazo[4,5-d]thieno[3,2-b]pyridin-1-yl]tetrahydro-2H-pyran-2-yl}acetonitrile] belongs more than 10; to `N#CCc1nc2cnc3ccsc3c2n1[C@H]1CC[C@H](CC#N)OC1` [Example 73, {(2R,5S)-5-[2-(Cyanomethyl)-1H-imidazo[4,5-d]thieno[3,2-b]pyridin-1-yl]tetrahydro-2H-pyran-2-yl}acetonitrile], more than 10.
As for `N#CCc1nc2cnc3ccsc3c2n1[C@H]1CC[C@@H](CC#N)OC1` [Example 74, {(2S,5S)-5-[2-(Cyanomethyl)-1H-imidazo[4,5-d]thieno[3,2-b]pyridin-1-yl]tetrahydro-2H-pyran-2-yl}acetonitrile], the JAK2/JAK1 is more than 10.
Turning to `C[C@@H](O)c1nc2cnc3ccsc3c2n1[C@H]1CC[C@H](CNS(C)(=O)=O)OC1` [Example 75, N-[((2R,5S)-5-{2-[(1R)-1-Hydroxyethyl]-1H-imidazo[4,5-d]thieno[3,2-b]pyridin-1-yl}tetrahydro-2H-pyran-2-yl)methyl]methanesulfonamide], the JAK2/JAK1 is recorded as more than 10.
To `CC(C)OC(=O)NC[C@H]1CC[C@H](n2c([C@@H](C)O)nc3cnc4ccsc4c32)CO1` [Example 76, Isopropyl [((2R,5S)-5-{2-[(1R)-1-hydroxyethyl]-1H-imidazo[4,5-d]thieno[3,2-b]pyridin-1-yl}tetrahydro-2H-pyran-2-yl)methyl]carbamate] belongs more than 10; to `COC(=O)NC[C@H]1CC[C@H](n2c([C@@H](C)O)nc3cnc4ccsc4c32)CC1` [Example 78, Methyl [(trans-4-{2-[(1R)-1-hydroxyethyl]-1H-imidazo[4,5-d]thieno[3,2-b]pyridin-1-yl}cyclohexyl)methyl]carbamate], more than 10.
In the case of `CC(=O)NC[C@H]1CC[C@H](n2c([C@@H](C)O)nc3cnc4ccsc4c32)CC1` [Example 79, N-[(trans-4-{2-[(1R)-1-Hydroxyethyl]-1H-imidazo[4,5-d]thieno[3,2-b]pyridin-1-yl}cyclohexyl)methyl]acetamide], the JAK2/JAK1 is more than 10.
To `C[C@@H](O)c1nc2cnc3ccsc3c2n1[C@H]1CC[C@H](CNS(C)(=O)=O)CC1` [Example 80, N-[(trans-4-{2-[(1R)-1-Hydroxyethyl]-1H-imidazo[4,5-d]thieno[3,2-b]pyridin-1-yl}cyclohexyl)methyl]methanesulfonamide] belongs more than 10; to `C[C@@H](O)c1nc2cnc3ccsc3c2n1[C@H]1CC[C@H](CNC(=O)N(C)C)CC1` [Example 81, N′-[(trans-4-{2-[(1R)-1-Hydroxyethyl]-1H-imidazo[4,5-d]thieno[3,2-b]pyridin-1-yl}cyclohexyl)methyl]-N,N-dimethylurea], more than 10.
As for `CCOC(=O)NC[C@H]1CC[C@H](n2c([C@@H](C)O)nc3cnc4ccsc4c32)CC1` [Example 82, Ethyl [(trans-4-{2-[(1R)-1-hydroxyethyl]-1H-imidazo[4,5-d]thieno[3,2-b]pyridin-1-yl}cyclohexyl)methyl]carbamate], the JAK2/JAK1 is given as more than 10.
Consider `CCCOC(=O)NC[C@H]1CC[C@H](n2c([C@@H](C)O)nc3cnc4ccsc4c32)CC1` [Example 83, Propyl [(trans-4-{2-[(1R)-1-hydroxyethyl]-1H-imidazo[4,5-d]thieno[3,2-b]pyridin-1-yl}cyclohexyl)methyl]carbamate], for which the JAK2/JAK1 is more than 10.
As for `CC(C)OC(=O)NC[C@H]1CC[C@H](n2c([C@@H](C)O)nc3cnc4ccsc4c32)CC1` [Example 84, Isopropyl [(trans-4-{2-[(1R)-1-hydroxyethyl]-1H-imidazo[4,5-d]thieno[3,2-b]pyridin-1-yl}cyclohexyl)methyl]carbamate], the JAK2/JAK1 is on record as more than 10.
As for `C[C@@H](O)c1nc2cnc3ccsc3c2n1[C@H]1CC[C@H](CNC(=O)OC2CCOC2)CC1` (stereo partly drawn) [Example 85, Tetrahydrofuran-3-yl [(trans-4-{2-[(1R)-1-hydroxyethyl]-1H-imidazo[4,5-d]thieno[3,2-b]pyridin-1-yl}cyclohexyl)methyl]carbamate], the JAK2/JAK1 is more than 10.
To `COC(=O)NC[C@H]1CC[C@H](n2c(CC#N)nc3cnc4ccsc4c32)CC1` [Example 86, Methyl({trans-4-[2-(cyanomethyl)-1H-imidazo[4,5-d]thieno[3,2-b]pyridin-1-yl]cyclohexyl}methyl)carbamate] belongs more than 10; to `CCOC(=O)NC[C@H]1CC[C@H](n2c(CC#N)nc3cnc4ccsc4c32)CC1` [Example 87, Ethyl({trans-4-[2-(cyanomethyl)-1H-imidazo[4,5-d]thieno[3,2-b]pyridin-1-yl]cyclohexyl}methyl)carbamate], more than 10; to `CC(C)OC(=O)NC[C@H]1CC[C@H](n2c(CC#N)nc3cnc4ccsc4c32)CC1` [Example 88, Isopropyl({trans-4-[2-(cyanomethyl)-1H-imidazo[4,5-d]thieno[3,2-b]pyridin-1-yl]cyclohexyl}methyl)carbamate], more than 10.
To `CCC(=O)NC[C@H]1CC[C@H](n2c(CC#N)nc3cnc4ccsc4c32)CC1` [Example 89, N-({trans-4-[2-(Cyanomethyl)-1H-imidazo[4,5-d]thieno[3,2-b]pyridin-1-yl]cyclohexyl}methyl)propanamide] belongs more than 10.
